US7851629B2, “Disubstituted phenylpiperidines as modulators of dopamine and serotonin neurotransmission” (NSAB, Filial af Neurosearch Sweden AB, Sverige, priority 2004, dated 2010)
“And” between values parts separate entries of the source, which are not always exact repeats. Equal entries are not always repeated. Structures can show the parent of a compound that is named as a salt.

Tests used:
MK-801 pre-treated rats = test: Locomotor activity in MK-801 pre-treated rats; conditions: ± SEM; for Locomotor activity, MK + example: MK-801 0.7 mg/kg i.p. 90 minutes before test compound 33 μmol/kg, recorded 30-60 minutes after administration
drug-naive rats = test: Locomotor activity in drug-naive rats; conditions: recorded for 60 minutes, ± SEM
[1] = test system: extracellular 5-HT, dopamine and norepinephrine in the cortex; test: Microdialysis in awake and freely moving rats, cortex monoamines; format: in vivo, rat; conditions: for levels of dopamine in the cortex / levels of norepinephrine in the cortex / 5-HT in the cortex: 50 μmol/kg s.c., pf. cortex; for levels of dopamine in the cortex / levels of norepinephrine in the cortex: FIG. 2-4; for 5-HT in the cortex: FIGS. 2-4
Excerpt: The microdialysis technique (Ungerstedt, Herrera-Marschitz et al. 1982) is a well established technique for measuring extracellular levels of neurotransmitters (Ungerstedt 1991). The microdialysis technique was used to measure the effect of drugs upon the monoamine transmitters. The appended graphs (FIGS. 1-4) show the effects of one established antidepressant (citalopram) upon 5-HT in the cortex, as well as for three compounds claimed in the present invention (Examples 3, 5, and 6).
Male Sprague-Dawley rats weighing 220-320 g were used throughout the experiments. Before the experiment the animals were group housed, five animals in each cage, with free access to water and food. The animals were housed at least one week after arrival prior to surgery and use in the experiments. Each rat was used only once for microdialysis.
We use a modified version (Waters, Lofberg et al. 1994) of the I-shaped probe (Santiago and Westerink 1990). The dialysis membrane we use is the AN69 polyacrylonitrile/sodium methalylsulfonate copolymer (HOSPITAL; o.d./i.d. 310/220 μm: Gambro, Lund, Sweden). In the dorsal striatum we use probes with an exposed length of 3 mm of dialysis membrane and in the prefrontal cortex the corresponding length is 2.5 mm. The rats were operated under isoflurane inhalation anesthesia while mounted into a Kopf stereotaxic instrument. Coordinates were calculated relative to bregma; dorsal striatum AP+1, ML±2.6, DV−6.3; Pf cortex, AP+3.2, 8° ML±1.2, DV−4.0 according to (Paxinos and Watson 1986). The dialysis probe was positioned in a burr hole under stereotaxic guidance and cemented with phosphatine dental cement.
The rats were housed individually in cages for 48 h before the dialysis experiments, allowing them to recover from surgery and minimizing the risk of drug interactions with the anaesthetic during the following experiments. During this period the rats had free access to food and water. On the day of experiment the rats were connected to a micro perfusion pump via a swivel and were replaced in the cage where they could move freely within its confinements. The perfusion medium was a Ringer's solution containing in mmol/l: NaCl; 140, CaCl2; 1.2, KCl; 3.0, MgCl2; 1.0 and ascorbic acid; 0.04 according to (Moghaddam and Bunney 1989). The pump was set to a perfusion speed of 2 μl/min and 40 μl samples were collected every 20 min.
30 μl of each sample was injected into the chromatograph. On a 10-port injector (Valco CLOW), with two sample loops mounted in series (2 μl and 20 μl), each brain dialysate sample is loaded in both loops simultaneously. When the valve is switched to inject the main part of the 20 μl sample is introduced into a reverse-phase ion-pairing system for dopamine (DA), norepinephrine (NA), normetanephrine (NM), 3-methoxytyramine(3-MT) and serotonin (5-hydroxytryptamine, 5-HT) determination (large loop), while a small fraction (2 μl, from the small loop) is introduced on a reverse-phase column for the chromatography of the acidic monoamine metabolites 3,4-di-hydroxyphenylacetic acid (DOPAC), homovanillic acid (HVA) and 5-hydroxyindoleacetic acid (5-HIAA). The currents generated by the two EC detectors are converted to digital data and evaluated using Chromelion software (Dionex, Sunnyvale, Calif.) on a PC. The method sample turn over time was 4.5 min and two parallel experiments are normally analysed simultaneously on the system. After the experiment the rats were uncoupled from the perfusion pump and decapitated. Their brains were rapidly taken out and fixed in Neo-fix solution (Kebo-lab, Sweden) for subsequent inspection of probe localisation. The Animal Ethics Committee in Göteborg, Sweden approved the procedures applied in these experiments. • Moghaddam, B. and B. S. Bunney (1989). “Ionic Composition of Microdialysis Perfusing Solution Alters the Pharmacological Responsiveness and Basal Outflow of Striatal Dopamine.” J. Neurochem. 53: 652-654. • Paxinos, G. and C. Watson (1986). […]

schizophrenic patients = conditions: selective sigma receptor antagonists; Borison et al 1991, Gewirtz et al 1994; cited from earlier work

With C[C@]12N[C@H](Cc3ccccc31)c1ccccc12 [MK-801, reference compound] the “Locomotor activity, MK-801” value (MK-801 pre-treated rats; MK-801 0.7 mg/kg i.p. alone, recorded 30-60 minutes, 0.7 mg/kg) was 55810 ± 16124 counts/30 min and 30462 ± 6937 counts/30 min.

CCN1CCC(c2cccc(C(F)(F)F)c2F)CC1 (as salt: hydrochloric acid salt) [Example 3, 4-[2-fluoro-3-(trifluoromethyl)phenyl]-1-ethylpiperidine] showed a melting point of 235 to 237 °C.

Compound CCCN1CCC(c2cccc(F)c2F)CC1 (as salt: hydrochloric acid salt) [Example 5, 4-(2,3-difluorophenyl)-1-propylpiperidine] has a melting point of 237 to 238 °C.

Work on CCCN1CCC(c2cccc(Cl)c2Cl)CC1 [drawing 18] yielded a Locomotor activity (drug-naive rats; 11 μmol/kg) of 7739 ± 1903 counts/60 min, a Locomotor activity (drug-naive rats; 33 μmol/kg) of 7053 ± 659 counts/60 min and a Locomotor activity (drug-naive rats; 100 μmol/kg) of 4272 ± 1831 counts/60 min.

Compound CCCN1CCC(c2cccc(F)c2F)CC1 [drawing 19] has a Locomotor activity (drug-naive rats; 11 μmol/kg) of 8894 ± 1039 counts/60 min, a Locomotor activity (drug-naive rats; 33 μmol/kg) of 9958 ± 1835 counts/60 min and a Locomotor activity (drug-naive rats; 100 μmol/kg) of 8154 ± 1388 counts/60 min.

With CCCN1CCC(c2cccc(Cl)c2Cl)CC1 [drawing 28] the “Locomotor activity, MK + example” value (MK-801 pre-treated rats) was 12943 ± 3226 (P = 0.06) counts/30 min.

CCCN1CCC(c2cccc(Cl)c2Cl)CC1 (as salt: hydrochloric acid salt) [Example 6, 4-(2,3-dichlorophenyl)-1-propylpiperidine] gave a melting point of 265 to 267 °C.

Work on CCN1CCC(c2cccc(C#N)c2F)CC1 (as salt: oxalic acid salt) yielded a melting point of 156 to 158 °C.

For CCCN1CCC(c2cccc(F)c2F)CC1 [Example 5, 4-(2,3-difluorophenyl)-1-propylpiperidine], the “levels of dopamine in the cortex” value [1] was “elevate”, the “levels of norepinephrine in the cortex” value [1] was “elevate” and the “5-HT in the cortex” value [1] was 5-HT increase in the cortex.

With CN1CCC(c2cccc(C(F)(F)F)c2F)CC1 (as salt: hydrochloric acid salt) the melting point was 260 to 261 °C.

For CCCN1CCC(c2cccc(F)c2F)CC1 [drawing 29], the “Locomotor activity, MK + example” value (MK-801 pre-treated rats) was 19826 ± 6949 (P = 0.09) counts/30 min.

With CCCN1CCC(c2cccc(Cl)c2Cl)CC1 [Example 6, 4-(2,3-dichlorophenyl)-1-propylpiperidine] the “levels of dopamine in the cortex” value [1] was “elevate”, the “levels of norepinephrine in the cortex” value [1] was “elevate” and the “5-HT in the cortex” value [1] was 5-HT increase in the cortex.

Compound CCN1CCC(c2cccc(C(F)(F)F)c2F)CC1 [drawing 17] has a Locomotor activity (drug-naive rats; 11 μmol/kg) of 10587 ± 1027 counts/60 min, a Locomotor activity (drug-naive rats; 33 μmol/kg) of 6439 ± 418 counts/60 min and a Locomotor activity (drug-naive rats; 100 μmol/kg) of 4866 ± 941 counts/60 min.

For OC(CCCN1CCN(c2ncc(F)cn2)CC1)c1ccc(F)cc1 (stereo not shown) [BMY14802], the “outcome of clinical studies in schizophrenic patients” value (schizophrenic patients) is given as “failed”.

With CCN1CCC(c2cccc(C(F)(F)F)c2F)CC1 [Example 3, 4-[2-fluoro-3-(trifluoromethyl)phenyl]-1-ethylpiperidine] the “levels of dopamine in the cortex” value [1] was “elevate”, the “levels of norepinephrine in the cortex” value [1] was “elevate” and the “5-HT in the cortex” value [1] was 5-HT increase in the cortex.

CCCN1CCC(c2cccc(OC(F)(F)F)c2F)CC1 (as salt: hydrochloric acid salt) [Example 2, 4-[2-fluoro-3-(trifluoromethoxy)phenyl]-1-propyl-piperidine] gave a melting point of 221 to 222 °C.

With CN1CCN2c3ncccc3Cc3ccccc3C2C1 (stereo not shown) [mirtazapine, reference compound] the “extracellular dopamine in the cortex” value ([1]; 10 mg/kg s.c., cortex, FIG. 5) was “increase” and the “extracellular norepinephrine in the cortex” value ([1]; 10 mg/kg s.c., cortex, FIG. 5) was “increase”.

For C[C@@H]1CN(CCCn2c3ccccc3c3ccccc32)C[C@H](C)N1 [BW234U], the “outcome of clinical studies in schizophrenic patients” value (schizophrenic patients) is listed as “failed”.
